The values below come from PubChem BioAssay (NCI).

Common to all, as to test: growth of human tumour cells (NCI), 48 h
In experiment [1] the test system is A549 NSCLC.
In experiment [2] the test system is CCRF-CEM leukemia.
The subject of experiment [3] is UACC-257 melanoma.
Experiment [4] relates to CAKI-1 renal.
The test system of experiment [5] is ACHN renal.
Experiment [6] has as its system RXF 393 renal.
Experiment [7] concerns SW-620 colon.
Experiment [8] concerns HCC-2998 colon.
In experiment [9] the test system is M14 melanoma.
Experiment [10] has as its system PC-3 prostate.

“And” between values parts separate entries of the source, which are not always exact repeats. Equal values may be shown once.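 Each compound was tested at five concentrations against cells in 96-well plates for 48 hours. GI50 = concentration required for 50% inhibition of growth. TGI denotes the concentration required for complete inhibition of growth.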 Bounds are passed on as bounds.

Take `O=C1NCCS(=O)(=O)/C1=C\C=C\c1cccc(C(F)(F)F)c1`: the GI50 in experiment [1] was 2.98 µM; in [2] it was 2.13 µM; in experiment [3], 1.83 µM; in [4], 2.22 µM; in experiment [5], 1.99 µM; in experiment [6], 2.52 µM. Moreover, the GI50 is 2.65 µM in [7], 1.93 µM in experiment [8], 1.89 µM in experiment [9] and 2.79 µM in experiment [10]. In addition, the TGI in experiment [1] amounted to 11.6 µM; in [2] it was 10.7 µM; in experiment [3] it was 9.22 µM; in [4], 10.2 µM; in [5], 4.52 µM; in [6] it was 5.37 µM. For the same compound, the TGI in experiment [7] came to 7.56 µM; in experiment [8], 3.72 µM; in experiment [9], 7.24 µM; in experiment [10], 11.4 µM.
Consider `CCN(CC)CCSCCCNc1c2ccc(Cl)cc2nc2ccc(OC)cc12`, for which the GI50 in [1] was 0.98 µM; in [2], 1.26 µM; in experiment [3], 2.06 µM; in [4] it was 1.23 µM; in [5], 0.719 µM; in experiment [6], 0.925 µM. For the same compound, the GI50 in experiment [7] is 0.511 µM; in experiment [8], 1.02 µM; in [9], 1.71 µM; in experiment [10] it was 1.23 µM. Moreover, the TGI worked out at 3.03 µM in experiment [1]; 4.72 µM in experiment [2]; 3.85 µM in experiment [3]; 3.45 µM in [4]; 3.05 µM in experiment [5]; 2.38 µM in [6]. Also, the TGI turned out to be 3.33 µM in experiment [7], 2.42 µM in [8], 3.46 µM in experiment [9] and 3.06 µM in experiment [10].
`Cc1c(Sc2ccccc2)[n+](=O)c2cc(Cl)c(Cl)cc2n1[O-]`: the GI50 in [1] is greater than 100 µM; in [2], 32.8 µM; in [3] it was 16 µM; in experiment [4], 42 µM; in [5] it was 20.5 µM; in experiment [6], 23.2 µM. Moreover, the GI50 is 29.5 µM in experiment [7], 34.1 µM in experiment [8], 46.8 µM in [9] and greater than 100 µM in experiment [10]. The TGI in experiment [1] is greater than 100 µM; in [2], greater than 100 µM; in [3] it was 44.6 µM; in [4], greater than 100 µM; in experiment [5] it was 41.6 µM; in experiment [6] it was 90.1 µM. Besides, the TGI in [7] is 96.1 µM; in [8], greater than 100 µM; in experiment [9] it was greater than 100 µM; in experiment [10], greater than 100 µM.
In the case of `N#Cc1cc(S(=O)(=O)Nc2nc3ccccc3s2)c(SCc2ccccc2)cc1Cl`, the GI50 was 15.4 µM in experiment [1]; 28.5 µM in [2]; 15.4 µM in experiment [3]; 18.6 µM in experiment [4]; 24.7 µM in [5]; 20.6 µM in experiment [6]. For the same compound, the GI50 was 19.8 µM in experiment [7], 17.7 µM in experiment [8], 18.9 µM in [9] and 23.1 µM in experiment [10]. The TGI in experiment [1] was found to be 35.3 µM; in experiment [2], 94.6 µM; in experiment [3], 35.2 µM; in [4], 45 µM; in experiment [5], 75 µM; in experiment [6], 45.4 µM. In addition, the TGI came to 43.7 µM in [7], 36.3 µM in [8], 37.1 µM in experiment [9] and 51.1 µM in [10].
In the case of `[Cl][Cd][Cl]`, the GI50 in experiment [1] was > 47.8 µM and 33.2 µM; in [2], 20.7 µM and 9.08 µM; in experiment [3] it was 22 µM and 27 µM; in experiment [4], 17.7 µM and 10.9 µM; in experiment [5] it was 77.7 µM; in [6], 50.1 µM and 13.6 µM. In addition, the GI50 in [7] is 19.5 µM and 17.2 µM; in experiment [8] it was 23.6 µM and 79 µM; in experiment [9], 43.4 µM and 62.3 µM; in [10], 10.5 µM. Besides, the TGI in experiment [1] was > 66.5 µM and 106 µM; in experiment [2] it was 56.7 µM and 89.7 µM; in experiment [3] it was 56.2 µM and 74.9 µM; in experiment [4], 34.8 µM and 22.2 µM; in experiment [5] it was 162 µM; in experiment [6] it was 41.2 µM. The TGI in experiment [7] was 37.1 µM and 76.7 µM; in experiment [8], > 63.5 µM and 158 µM; in experiment [9] it was > 76.9 µM and 161 µM; in experiment [10] it was 23.6 µM.
For `COc1ccc(-c2nn(-c3cccc(NC(=O)c4ccc(N5CCOCC5)c(C(F)(F)F)c4)c3)cc2-c2ccncc2)cc1Cl`, the GI50 in [1] is 6.52 µM; in experiment [2], 2.92 µM; in [3], greater than 50 µM; in [4], 3.64 µM; in experiment [5], 10.2 µM; in experiment [6], 1.35 µM. In addition, the GI50 was 21.3 µM in experiment [7], 14.1 µM in experiment [8], 4.54 µM in [9] and 3.49 µM in experiment [10]. Further, the TGI in [1] was greater than 50 µM; in experiment [2] it was greater than 50 µM; in experiment [3], greater than 50 µM; in experiment [4], greater than 50 µM; in [5], greater than 50 µM; in experiment [6], 23.3 µM. Further, the TGI in experiment [7] is greater than 50 µM; in [8] it was greater than 50 µM; in experiment [9], 38.1 µM; in experiment [10], greater than 50 µM.
On to `C=C1c2c(Cl)ccc(O)c2C(O)=C2C(=O)[C@]3(O)C(O)=C(C(N)=O)C(=O)[C@@H](N(C)C)[C@@H]3[C@@H](O)[C@H]12`, for which the GI50 in experiment [1] was 1.39 µM; in experiment [2], 1.45 µM; in [3], 0.888 µM; in [4] it was 0.499 µM; in experiment [5], 1.37 µM; in experiment [6], 0.534 µM. The GI50 in experiment [7] was 1.5 µM; in experiment [8], 1.32 µM; in [9], 1.32 µM; in experiment [10], 1.34 µM. The TGI in [1] is 16.6 µM; in experiment [2], 39.6 µM; in [3], 3.61 µM; in [4] it was 3.4 µM; in [5] it was greater than 50 µM; in [6], 2.82 µM. The TGI in [7] was greater than 50 µM; in experiment [8], 5.61 µM; in [9], 5.79 µM; in experiment [10], 31.4 µM.
